Reference: ChEMBL document CHEMBL1153012, “Synthesis and antibacterial activity of novel 5-(4-methyl-1H-1,2,3-triazole) methyl oxazolidinones” (2009)
≈ marks a conversion by molar mass, not a printed value.

Legend:
Assay type in all cases: functional
Staphylococcus aureus [1] = assay: Antibacterial activity against methicillin-susceptible Staphylococcus aureus by agar dilution method
Staphylococcus aureus [2] = assay: Antibacterial activity against Staphylococcus aureus ATCC 25923 by agar dilution method in presence of human plasma; details: ATCC 25923, Plasma
Staphylococcus [3] = assay: Antibacterial activity against methicillin resistant coagulase-negative Staphylococcus by agar dilution method
Haemophilus influenzae [4] = assay: Antibacterial activity against Haemophilus influenzae isolate 280 by agar dilution method
Staphylococcus aureus [5] = assay: Antibacterial activity against methicillin-resistant Staphylococcus aureus by agar dilution method
Enterococcus [6] = assay: Antibacterial activity against vancomycin-sensitive Enterococcus by agar dilution method
Moraxella catarrhalis = assay: Antibacterial activity against Moraxella catarrhalis by agar dilution method
Haemophilus influenzae [7] = assay: Antibacterial activity against Haemophilus influenzae isolate 282 by agar dilution method
Haemophilus influenzae [8] = assay: Antibacterial activity against Haemophilus influenzae isolate 285 by agar dilution method
Haemophilus influenzae [9] = assay: Antibacterial activity against Haemophilus influenzae isolate 283 by agar dilution method
Enterococcus [10] = assay: Antibacterial activity against vancomycin-resistant Enterococcus by agar dilution method
Haemophilus influenzae [11] = assay: Antibacterial activity against Haemophilus influenzae ATCC 49247 by agar dilution method
Staphylococcus [12] = assay: Antibacterial activity against methicillin-sensitive coagulase-negative Staphylococcus by agar dilution method
Escherichia coli = assay: Antibacterial activity against Escherichia coli ATCC 25922 by agar dilution method
Streptococcus pneumoniae = assay: Antibacterial activity against Streptococcus pneumoniae by agar dilution method
Staphylococcus aureus [13] = assay: Antibacterial activity against Staphylococcus aureus ATCC 25923 by agar dilution method

Row | Structure (SMILES) | MIC (Staphylococcus aureus [1]) [µg/mL] | MIC (Staphylococcus aureus [2]) [µg/mL] | MIC (Staphylococcus [3]) [µg/mL] | MIC (Haemophilus influenzae [4]) [µg/mL] | MIC (Staphylococcus aureus [5]) [µg/mL] | MIC (Enterococcus [6]) [µg/mL] | MIC (Moraxella catarrhalis) [µg/mL] | MIC (Haemophilus influenzae [7]) [µg/mL] | MIC (Haemophilus influenzae [8]) [µg/mL] | MIC (Haemophilus influenzae [9]) [µg/mL] | MIC (Enterococcus [10]) [µg/mL] | MIC (Haemophilus influenzae [11]) [µg/mL] | MIC (Staphylococcus [12]) [µg/mL] | MIC (Escherichia coli) [µg/mL] | MIC (Streptococcus pneumoniae) [µg/mL] | MIC (Staphylococcus aureus [13]) [µg/mL]
1 | Cc1cn(C[C@H]2CN(c3ccc(N4CCN(C(=O)C5CCC5)CC4)c(F)c3)C(=O)O2)nn1 | 2 (≈ 4.52 µM) | 16 | 2 (≈ 4.52 µM) | 32 (≈ 72.3 µM) | 2 (≈ 4.52 µM) | 2 (≈ 4.52 µM) | 32 (≈ 72.3 µM) | 32 (≈ 72.3 µM) | 32 (≈ 72.3 µM) | 32 (≈ 72.3 µM) | 2 (≈ 4.52 µM) | 32 (≈ 72.3 µM) | 2 (≈ 4.52 µM) | > 64 | 4 (≈ 9.04 µM) | 4 (≈ 9.04 µM)
2 | CCCCCC(=O)N1CCN(c2ccc(N3C[C@H](Cn4cc(C)nn4)OC3=O)cc2F)CC1 | 2 (≈ 4.36 µM) | > 64 | 2 (≈ 4.36 µM) | > 64 | 4 (≈ 8.72 µM) | 2 (≈ 4.36 µM) | > 64 | > 64 | > 64 | > 64 | 2 (≈ 4.36 µM) | > 64 | 2 (≈ 4.36 µM) | > 64 | 8 (≈ 17.4 µM) | 4 (≈ 8.72 µM)
3 | Cc1cn(C[C@H]2CN(c3ccc(N4CCN(C(=O)C(F)(F)F)CC4)c(F)c3)C(=O)O2)nn1 | 1 (≈ 2.19 µM) | 8 | 1 (≈ 2.19 µM) | 64 (≈ 140 µM) | 2 (≈ 4.38 µM) | 1 (≈ 2.19 µM) | 8 (≈ 17.5 µM) | 64 (≈ 140 µM) | 64 (≈ 140 µM) | 64 (≈ 140 µM) | 1 (≈ 2.19 µM) | 64 (≈ 140 µM) | 1 (≈ 2.19 µM) | 8 (≈ 17.5 µM) | 1 (≈ 2.19 µM) | 4 (≈ 8.76 µM)
4 | Cc1cn(C[C@H]2CN(c3ccc(N4CCN(C(=O)Cc5ccccc5)CC4)c(F)c3)C(=O)O2)nn1 | 2 (≈ 4.18 µM) | > 64 | 2 (≈ 4.18 µM) | > 64 | 2 (≈ 4.18 µM) | 2 (≈ 4.18 µM) | 16 (≈ 33.4 µM) | > 64 | > 64 | > 64 | 1 (≈ 2.09 µM) | > 64 | 2 (≈ 4.18 µM) | > 64 | 2 (≈ 4.18 µM) | 4 (≈ 8.36 µM)
5 | Cc1cn(C[C@H]2CN(c3ccc(N4CCN(C(=O)C(Cl)Cl)CC4)c(F)c3)C(=O)O2)nn1 | 1 (≈ 2.12 µM) | 8 | 0.5 (≈ 1.06 µM) | 32 (≈ 67.9 µM) | 1 (≈ 2.12 µM) | 1 (≈ 2.12 µM) | 16 (≈ 33.9 µM) | 32 (≈ 67.9 µM) | 32 (≈ 67.9 µM) | 64 (≈ 136 µM) | 1 (≈ 2.12 µM) | 64 (≈ 136 µM) | 1 (≈ 2.12 µM) | > 64 | 1 (≈ 2.12 µM) | 2 (≈ 4.24 µM)
6 | Cc1cn(C[C@H]2CN(c3ccc(N4CCN(C(=O)CC(C)C)CC4)c(F)c3)C(=O)O2)nn1 | 2 (≈ 4.5 µM) | 32 | 2 (≈ 4.5 µM) | > 64 | 2 (≈ 4.5 µM) | 2 (≈ 4.5 µM) | 32 (≈ 72 µM) | > 64 | > 64 | > 64 | 4 (≈ 9 µM) | 64 (≈ 144 µM) | 2 (≈ 4.5 µM) | > 64 | 4 (≈ 9 µM) | 4 (≈ 9 µM)
7 | Cc1cn(C[C@H]2CN(c3ccc(N4CCOCC4)c(F)c3)C(=O)O2)nn1 | 1 (≈ 2.77 µM) | 4 | 1 (≈ 2.77 µM) | 64 (≈ 177 µM) | 0.5 (≈ 1.38 µM) | 1 (≈ 2.77 µM) | 8 (≈ 22.1 µM) | 64 (≈ 177 µM) | 64 (≈ 177 µM) | 64 (≈ 177 µM) | 1 (≈ 2.77 µM) | 64 (≈ 177 µM) | 1 (≈ 2.77 µM) | > 64 | 1 (≈ 2.77 µM) | 2 (≈ 5.53 µM)
8 | Cc1cn(C[C@H]2CN(c3ccc(N4CCN(C(=O)C5CCCC5)CC4)c(F)c3)C(=O)O2)nn1 | 2 (≈ 4.38 µM) | 32 | 2 (≈ 4.38 µM) | 32 (≈ 70.1 µM) | 2 (≈ 4.38 µM) | 2 (≈ 4.38 µM) | 32 (≈ 70.1 µM) | 32 (≈ 70.1 µM) | 32 (≈ 70.1 µM) | 32 (≈ 70.1 µM) | 2 (≈ 4.38 µM) | 32 (≈ 70.1 µM) | 2 (≈ 4.38 µM) | > 64 | 4 (≈ 8.76 µM) | 4 (≈ 8.76 µM)
9 | Cc1cn(C[C@H]2CN(c3ccc(N4CCN(C(=O)c5ccccc5)CC4)c(F)c3)C(=O)O2)nn1 | 1 (≈ 2.15 µM) | 32 | 1 (≈ 2.15 µM) | > 64 | 1 (≈ 2.15 µM) | 1 (≈ 2.15 µM) | 32 (≈ 68.9 µM) | > 64 | > 64 | > 64 | 1 (≈ 2.15 µM) | > 64 | 1 (≈ 2.15 µM) | > 64 | 4 (≈ 8.61 µM) | 2 (≈ 4.31 µM)
10 | Cc1cn(C[C@H]2CN(c3ccc(N4CCN(C(=O)C5CC5)CC4)c(F)c3)C(=O)O2)nn1 | 2 (≈ 4.67 µM) | 16 | 1 (≈ 2.33 µM) | 32 (≈ 74.7 µM) | 2 (≈ 4.67 µM) | 1 (≈ 2.33 µM) | 16 (≈ 37.3 µM) | 32 (≈ 74.7 µM) | 32 (≈ 74.7 µM) | 32 (≈ 74.7 µM) | 1 (≈ 2.33 µM) | 32 (≈ 74.7 µM) | 1 (≈ 2.33 µM) | > 64 | 2 (≈ 4.67 µM) | 2 (≈ 4.67 µM)
11 | Cc1cn(C[C@H]2CN(c3ccc(N4CCN(C(=O)C5CCCCC5)CC4)c(F)c3)C(=O)O2)nn1 | 1 (≈ 2.13 µM) | 32 | 1 (≈ 2.13 µM) | 32 (≈ 68 µM) | 2 (≈ 4.25 µM) | 1 (≈ 2.13 µM) | 32 (≈ 68 µM) | 32 (≈ 68 µM) | 32 (≈ 68 µM) | 32 (≈ 68 µM) | 1 (≈ 2.13 µM) | 32 (≈ 68 µM) | 1 (≈ 2.13 µM) | > 64 | 4 (≈ 8.5 µM) | 2 (≈ 4.25 µM)
12 | CCCCC(=O)N1CCN(c2ccc(N3C[C@H](Cn4cc(C)nn4)OC3=O)cc2F)CC1 | 1 (≈ 2.25 µM) | 32 | 1 (≈ 2.25 µM) | 64 (≈ 144 µM) | 1 (≈ 2.25 µM) | 1 (≈ 2.25 µM) | 16 (≈ 36 µM) | 64 (≈ 144 µM) | 64 (≈ 144 µM) | 64 (≈ 144 µM) | 1 (≈ 2.25 µM) | 64 (≈ 144 µM) | 1 (≈ 2.25 µM) | > 64 | 2 (≈ 4.5 µM) | 2 (≈ 4.5 µM)
13 | CCC(C)C(=O)N1CCN(c2ccc(N3C[C@H](Cn4cc(C)nn4)OC3=O)cc2F)CC1 (stereo partly drawn) | 2 (≈ 4.5 µM) | 32 | 2 (≈ 4.5 µM) | > 64 | 2 (≈ 4.5 µM) | 4 (≈ 9 µM) | 32 (≈ 72 µM) | > 64 | > 64 | > 64 | 4 (≈ 9 µM) | > 64 | 2 (≈ 4.5 µM) | > 64 | 4 (≈ 9 µM) | 2 (≈ 4.5 µM)
